Source: US11464782B2, “Method of treating pain or interstitial cystitis using indole compound” (Japan Tobacco Inc., priority 2018, dated 2022)

Test system: subjects with active rheumatoid arthritis
Assay: Pain evaluation in rheumatoid arthritis human clinical trial (pain NRS)
Type: in vivo
Protocol: Compound A was evaluated in a multicenter, randomized, double-blind, placebo-controlled, parallel-group study in subjects with active rheumatoid arthritis. Subjects were randomized to receive orally placebo or an amount of monohydrochloride Compound A sufficient to provide 50 mg, 100 mg, 150 mg, or 200 mg of free form, once daily for 12 weeks.
Pain was evaluated using a Numerical Rating Scale (NRS) by subjects. The pain NRS represents the severity of their arthritis pain during the past 3 days using an 11-point scale from 0 (no pain) to 10 (maximum pain). An evaluation was made of how much NRS decreased from baseline NRS after drug administration.
Data from EOT (end of treatment), at 2 weeks, and at 12 weeks was obtained. EOT is a measurement point generally used in clinical studies. In a 12-week study, it refers to all analysis at the 12-week time point. However, since some subjects will have discontinued the study midway, the data at the time of discontinuation is treated as the EOT for these subjects (for example, data for week 8 is used as EOT for subjects who discontinued in week 8). 2-week (subjects who completed 2 weeks in full) and 12-week (subjects who completed 12 weeks in full) data are also presented.
Change in pain NRS was evaluated in two subgroups of patients, those with higher baseline pain levels (median baseline pain NRS≥8.0) and those with lower baseline pain levels (median baseline pain NRS<8.0). […] Although the magnitude of decrease in pain NRS was different between lower and higher baseline pain NRS subgroups, both subgroups ultimately achieved a pain NRS score of approximately 4.

[1] = rheumatoid arthritis subjects, 50-200 mg oral once daily

## C[C@@H](C(=O)N(C)c1ccc2cc(-c3n[nH]c4c3CCC(C)(C)C4)[nH]c2c1)N1CCOCC1 [Compound A, N-[2-(6,6-dimethyl-4,5,6,7-tetrahydro-1H-indazol-3-yl)-1H-indol-6-yl]-N-methyl-(2S)-2-(morpholin-4-yl)propanamide]
Both lower (<8.0) and higher (≥8.0) baseline pain NRS subgroups, 50-200 mg oral once daily for 12 weeks
  pain NRS score ultimately achieved: approximately 4
[1]
  duration of anti-pain effects (long-lasting): 12 weeks
  time to anti-pain effects (rapid): ≤ 2 weeks
Subjects having pain greater than or equal to 8 on the NRS scale
  pain in subjects having severe pain: reduce pain
Subjects with higher baseline pain levels (NRS≥8.0) versus lower (NRS<8.0)
  decrease in pain NRS by baseline pain subgroup: Larger decreases in pain NRS were observed in subjects that began treatment with higher baseline pain levels
